Among the test systems are OVCAR-8 ovarian; SN12C renal; TK-10 renal; NCI-H226 lung; CCRF-CEM leukemia; SNB-19 CNS; NCI-H23 lung; A498 renal; SF-539 CNS; SNB-75 CNS.
Holding throughout (assay): growth of human tumour cells (NCI), 48 h

“And” between values parts separate entries of the source, which are not always exact repeats. Identical values can stand only once.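 Cultured in 96-well plates, cells were exposed to test compound for 48 hours across five concentrations. GI50 marks 50% less growth. Definition used: TGI = concentration required for complete inhibition of growth.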

In the case of `CC[C@@H](O)C[C@H]1CCC[C@@]2(C[C@@H]3OC(=O)/C=C/[C@@](C)(O)[C@@H](O)[C@H](C)[C@@H](O)[C@H](OC4CCC(N(C)C)C(C)O4)[C@@H](O)[C@](C)(O)CCCCC/C=C/[C@@H]4CC(C)(C)O[C@@]4(O)C[C@H](O2)[C@H]3C)O1` (stereo partly specified), the TGI with OVCAR-8 ovarian is 20.3 µM; in the test with SN12C renal it was 37.1 µM; with TK-10 renal, 21.6 µM; in the test on NCI-H226 lung, 29.6 µM; in the test on CCRF-CEM leukemia, over 100 µM; in the test with SNB-19 CNS it was 20.6 µM. Further, the TGI with NCI-H23 lung worked out at 18.2 µM; in the test with A498 renal, 57.4 µM; with SF-539 CNS, 23.3 µM; in the test with SNB-75 CNS, 21.5 µM.
`C1CC2=C(C1)C1=S(S2)SC2=C1CCC2`: the TGI in the test with OVCAR-8 ovarian, with SN12C renal, in the test with TK-10 renal, in the test with NCI-H226 lung, with CCRF-CEM leukemia and with SNB-19 CNS was over 100 µM throughout. The TGI in the test with NCI-H23 lung was over 100 µM; in the test on A498 renal, 87.4 µM; in the test on SF-539 CNS it was over 100 µM; in the test on SNB-75 CNS it was over 100 µM.
With `Cc1noc(C)c1-c1cnc2c(-c3ccc(C(=O)O)cc3)cn([C@@H](C)c3ccccn3)c2c1`, the GI50 was 2.89 µM in the test on OVCAR-8 ovarian; 2.99 µM in the test on SN12C renal; 0.405 µM in the test with TK-10 renal; 5.02 µM in the test on NCI-H226 lung; 2.73 µM in the test with CCRF-CEM leukemia; 1.58 µM in the test on SNB-19 CNS. For the same molecule, the GI50 with NCI-H23 lung was 3.32 µM; in the test with A498 renal, 0.196 µM; in the test on SF-539 CNS, 0.842 µM; in the test with SNB-75 CNS it was 0.0376 µM. In addition, the TGI with OVCAR-8 ovarian was over 100 µM; with SN12C renal, over 100 µM; in the test on TK-10 renal it was over 100 µM; with NCI-H226 lung, over 46.6 µM; in the test on CCRF-CEM leukemia, over 100 µM; in the test with SNB-19 CNS it was over 100 µM. For the same molecule, the TGI was over 100 µM in the test on NCI-H23 lung, 1.87 µM in the test on A498 renal, over 100 µM in the test on SF-539 CNS and 2.47 µM in the test with SNB-75 CNS.
For `Cc1c(C)c2c(c(C)c1OCC(=O)O)CC[C@@](C)(CCC[C@@H](C)CCC[C@@H](C)CCCC(C)C)O2`, the GI50 in the test with OVCAR-8 ovarian is 59.4 µM; in the test with SN12C renal, 66.7 µM; in the test with TK-10 renal, 85.6 µM; with NCI-H226 lung it was 89 µM; in the test on CCRF-CEM leukemia it was 27.1 µM; in the test with SNB-19 CNS, 95.8 µM. Also, the GI50 in the test on NCI-H23 lung was 75.7 µM; with A498 renal it was 94.9 µM; in the test with SF-539 CNS, 78.1 µM; in the test on SNB-75 CNS, 69.9 µM. Moreover, the TGI amounted to 152 µM in the test on OVCAR-8 ovarian; 176 µM in the test with SN12C renal; 154 µM with TK-10 renal; 244 µM in the test on NCI-H226 lung; 189 µM with CCRF-CEM leukemia; 196 µM in the test with SNB-19 CNS. Further, the TGI worked out at 200 µM in the test with NCI-H23 lung, 167 µM with A498 renal, 153 µM with SF-539 CNS and 141 µM in the test with SNB-75 CNS.
For `COC(=O)N/N=C(\C)C(CN(C)C)C(c1ccccc1)c1c(O)c2ccccc2oc1=O` (stereo unspecified), the TGI in the test with OVCAR-8 ovarian, in the test on SN12C renal, in the test on TK-10 renal, in the test with NCI-H226 lung, in the test with CCRF-CEM leukemia and in the test on SNB-19 CNS was over 100 µM each time. Besides, the TGI with NCI-H23 lung, in the test on A498 renal, in the test with SF-539 CNS and in the test on SNB-75 CNS was over 100 µM each time.
In the case of `CN1CCN(CCCOc2cccc3nc(Nc4ccc(F)c(F)c4)ccc23)CC1`, the GI50 is 5.13 µM in the test with OVCAR-8 ovarian; 4.87 µM in the test with SN12C renal; 2.63 µM in the test with TK-10 renal; 5.51 µM in the test with NCI-H226 lung; 2.42 µM in the test on CCRF-CEM leukemia; 4.89 µM in the test with SNB-19 CNS. Also, the GI50 with NCI-H23 lung was 4.67 µM; with A498 renal, 5.65 µM; in the test on SF-539 CNS, 4.03 µM; in the test on SNB-75 CNS, 3.92 µM. The TGI in the test with OVCAR-8 ovarian turned out to be 10.2 µM; with SN12C renal it was 9.93 µM; in the test with TK-10 renal, 6.94 µM; with NCI-H226 lung it was 11.1 µM; in the test on CCRF-CEM leukemia it was 8.06 µM; in the test with SNB-19 CNS, 10.2 µM. Besides, the TGI worked out at 9.29 µM with NCI-H23 lung, 11.6 µM with A498 renal, 8.56 µM with SF-539 CNS and 9.5 µM with SNB-75 CNS.
With `Nc1ccccc1C(=O)NC(=O)Nc1ccc(Oc2ncc(Br)cn2)c(Cl)c1`, the TGI with OVCAR-8 ovarian was 4.77 µM; in the test on SN12C renal, 17.4 µM; in the test with TK-10 renal, 13.8 µM; with NCI-H226 lung it was 1.49 µM; with CCRF-CEM leukemia, 1.9 µM; in the test on SNB-19 CNS, 14.7 µM. Further, the figures for the TGI in the test with NCI-H23 lung, in the test with A498 renal and in the test on SF-539 CNS were 4.86 µM, 1.21 µM and 0.0204 µM, respectively. Besides, the GI50 in the test on CCRF-CEM leukemia was 0.0249 µM and < 0.0246 µM; with SNB-75 CNS, 0.0035 µM.
For the molecule `CNCCCNc1c2ccccc2nc2cccc([N+](=O)[O-])c12`, the TGI was 0.0205 µM in the test with OVCAR-8 ovarian; < 0.0318 µM and 0.0181 µM in the test with SN12C renal; 0.0327 µM in the test with TK-10 renal; 0.0521 µM with NCI-H226 lung; 0.0143 µM with CCRF-CEM leukemia; 0.0309 µM and 0.13 µM in the test with SNB-19 CNS. Moreover, the TGI in the test on NCI-H23 lung was 0.00564 µM; in the test with A498 renal, 0.00751 µM; with SF-539 CNS, 0.0163 µM and 0.0172 µM; in the test on SNB-75 CNS it was 0.0142 µM.

These data come from PubChem BioAssay (NCI).
